# Several values for one entry are separate records, joined by “and”; a condition that tells them apart may be missing. Equal entries are not always repeated.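 Dose response: 5 concentrations. Exposure: 48 h. Format: 96-well plates. Endpoint: linear interpolation; highest concentration if not reached. Here, GI50 denotes the concentration required for 50% inhibition of growth. Definition used: TGI = concentration required for complete inhibition of growth.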
# Legend:
# Assay in all cases: inhibition of tumour cell growth, NCI panel, 48 h
# TK-10 renal = system: TK-10 renal
# 786-0 renal = system: 786-0 renal
# UO-31 renal = system: UO-31 renal
# CCRF-CEM leukemia = system: CCRF-CEM leukemia
# SF-268 CNS = system: SF-268 CNS
# HL-60(TB) leukemia = system: HL-60(TB) leukemia
# A498 renal = system: A498 renal
# HOP-92 NSCLC = system: HOP-92 NSCLC
Structure (SMILES),GI50 (TK-10 renal) [µM],TGI (TK-10 renal) [µM],GI50 (786-0 renal) [µM],TGI (786-0 renal) [µM],GI50 (UO-31 renal) [µM],TGI (UO-31 renal) [µM],GI50 (CCRF-CEM leukemia) [µM],TGI (CCRF-CEM leukemia) [µM],GI50 (SF-268 CNS) [µM],TGI (SF-268 CNS) [µM],GI50 (HL-60(TB) leukemia) [µM],TGI (HL-60(TB) leukemia),GI50 (A498 renal) [µM],TGI (A498 renal) [µM],TGI (HOP-92 NSCLC) [µM],GI50 (HOP-92 NSCLC) [µM]
CN(C)c1ccc(-c2cc(-c3ccc(Nc4nc(Nc5ccc(Cl)cc5)nc(Nc5ccc(Cl)cc5)n4)cc3)nc(N)c2C#N)cc1,53.8,> 100,16.7,> 100,47.6,> 100,2.59,36.5,40.3,> 100,10.6,> 100 µM,6.41,> 100,2.93,–
CCCCCCCCCCCC[C@@H](O)[C@H]1CC[C@H]([C@H](O)CC[C@H](O)[C@@H]2CC[C@@H](CCCCCCCC3=C[C@H](C)OC3=O)O2)O1,1.24,> 50,6.4,> 50,2.51,> 50,1.22,> 50,4.21,> 50,> 50,5.85 µM and > 50 µM,–,> 50,> 50,3.08
COc1ccc(Nc2cnc3cc(N)cc(N)c3n2)cc1,23.7,76.2,18.2,42.9,25.7,98.5,14.8,89.7,17.7,39.8,5.49,73.7 µM,16.9,59.1,–,–
O=C(O)CN(CCN(CC(=O)O)CC(=O)O)CC(=O)O.[Mn+2],> 100,> 100,> 100,> 100,> 100,> 100,> 100,> 100,> 100,> 100,> 100,> 100 µM,> 100,> 100,–,–
COCCOC1=C(Cl)C(=O)c2ccccc2C1=O,2.83,10.8,6.26,18.8,3.07,16,–,–,2.24,9.32,1.58,4.87 µM,4.35,18.2,2.93,1.41
COc1ccccc1Oc1nccc(-c2c(-c3ccc(F)cc3)ncn2C2CCNCC2)n1,> 25,> 25,> 25,> 25,6.86,> 25,–,–,> 25,> 25,> 23.3,> 25 µM,> 25,> 25,–,–
C(=Nc1nc(SCc2ccccc2)nc2[nH]ncc12)c1cccs1,44.3,> 100,79.7,> 100,73.8,> 100,37.2,> 100,30.4,> 100,–,–,–,–,50,10.7
N#CC(C#N)=C/C=C(\Sc1ccc(Cl)cc1)c1ccc(F)cc1,0.857,3.61,0.42,3.07,1.85,> 40.3,0.0177,> 100,2.46,18.8,–,–,3.42,8.67,13.2,0.501
OCC1CC[N-]CC1.OCC1CC[N-]CC1.[Cl][Pt+2]([Cl])([Cl])[Cl],37.3,–,34.9,–,31.2,89.9,–,–,40.5,–,–,–,95.3,–,87,34.2
CC(=O)NC1C(O[C@H]2C[C@H]3[C@@H]4CC=C5C[C@@H](O)CC[C@]5(C)[C@H]4CC[C@]3(C)[C@H]2[C@H](C)C(=O)CCC(C)C)OCC(O)C1O (stereo partly drawn),13.9,> 42.5,0.553,2.21,1.18,3.52,1.25,4.15,2.31,11.2,–,–,0.977,2.88,15.5,5.1
Cc1ccc(NC(=O)c2cc(S(=O)(=O)Nc3nnc(-c4ccccc4)c(-c4ccccc4)n3)c(SCc3ccccc3)cc2Cl)cc1,18.4,40.6,33.9,> 100,25.3,63.9,49.5,> 100,20.2,84.5,17.2,41.6 µM,–,–,42.9,18.8
Cc1ccc(S(=O)(=O)NCCCCC(N)C(=O)O)cc1 (stereo not drawn),–,–,–,> 100,–,> 100,–,> 100,–,> 100,–,–,–,> 100,> 100,–
COCCN(CCOC)c1nc(-c2ccccc2)nc2ccccc12,30.7,78.4,25.6,> 100,28.1,> 100,4.23,> 100,19.7,62.4,30.3,> 100 µM,30.1,89.7,–,–
Cc1cccc(Cn2cc(CO)c3cnccc32)c1,64.7,> 100,> 100,> 100,46.4,> 100,–,–,> 100,> 100,–,–,10,26.7,79.4,7.88
C=C(CN1CCc2[nH]c3ccc(F)cc3c2C1)c1ccc(C(=O)Nc2ccccc2N)cc1,2.58,16.2,0.56,3.59,0.997,4.14,2.52,11.9,3.03,8.36,–,–,1.5,4.62,36.7,10.7
O=C(Nc1ccc(OC(F)(F)Cl)cc1)c1cnc(N2CC[C@@H](O)C2)c(-c2ccn[nH]2)c1,–,–,15,32.8,11.9,31,11.3,43.2,15.4,39.2,22.3,54 µM,14.8,31.2,41.3,17.3
[O]=[V]([OH])([OH])[OH],> 100,> 100,> 100,> 100,> 100,> 100,> 100,> 100,> 100,> 100,–,–,> 100,> 100,–,–

# Source: PubChem BioAssay (NCI)
